Laboratory results: patent publication US20230104487A1, “11-(4-CHLOROPHENYL)-4-(2,3-DIHYDRO-1H-INDOLE-1-CARBONYL)-3,11-DIMETHYL-5,10,DIOXATRICYCLO[7.4.0.0,2,6,]TRIDECA-1,3,6,8-TETRAEN-13-ONE AND DERIVATIVES AS DESTABILIZER OF CRY1 FOR THE TREATMENT OF CIRCADIAN RHYTHM ASSOCIATED DISEASES AND DISORDERS” (KOC UNIVERSITESI, priority 2019, published 2023)
Entries after “also recorded” stand apart in the source; their conditions may differ. Where two headings read alike, the source gives them in different places.

Columns and labels:
[1] = Plasma pharmacokinetics in mice; assay type: in vivo, mouse
Protocol: C57BL/6J female mice (n=4 per each time point) were treated with 100 mg/kg single dose of FORMULA I intraperitoneally. Blood samples were collected 0, 0.5, 1, 2, 4, 8, 12 and 24 h after administration of FORMULA I by cardiac puncture under isoflurane anesthesia. Plasma was obtained by centrifugation from heparinized tubes and stored at −80° C. until analysis. Brain tissues were quickly removed and stored at −80° C. for further processing. For assessment of the brain exposure of FORMULA I, levels in this tissue were only determined at 2nd (n=2) and 4th (n=2) hours according to maximum concentrations of the molecule in plasma.
Liquid chromatography coupled to tandem mass spectrometry (LC-MS/MS) was used to obtain high mass accuracy data of the analytes in plasma samples for the determination of FORMULA I and Internal standard (IS) Loratadine. The instrument was operated in full scan mode and ion source parameters were optimised for the analytes. The optimized conditions of the electrospray ionization (ESI) source were as follows: gas temperature, 300° C.; gas flow, 10 L/min; nebulizer pressure, 25 psi; capillary voltage, 5500 V. ESI in the positive ion mode provides the best results for FORMULA I. For MS-MS detection, the protonated molecules were selected as precursor ions and the most abundant fragment ions obtained at collision energy of 22-20 eV were monitored as the product ions for FORMULA I and IS. MS-MS analysis was performed in the selected reaction monitoring (SRM) positive ionization mode, using mass transitions for FORMULA I m/z 472.1→353.4 [collision energy (CE)=22 eV] and Fragmentor 234 V, for IS; m/z 383.2→337.2 (CE=20 eV) and fragmentor 140 V. For the separation of the analytes, a conventional reversed-phase LC separation on C18-bonded silica was used, with Methanol: % 0.1 Formic acid (90:10, v/v) mobile phase. FORMULA I was extracted from plasma samples by using liquid-liquid extraction with Methanol. 10 μL of sample was injected into the LC-MS/MS system.
Peak plasma concentration (Cmax) and time to reach peak plasma concentration (tmax) values were directly obtained from the FORMULA I plasma concentration-time curve. The area under the plasma concentration-time curve from […] was calculated by the trapezoidal method. AUC0-∞ was obtained by addition of the extrapolated part after the last sampling time using standard techniques. Other pharmacokinetic parameters of FORMULA I were calculated by the non-compartmental method. Elimination rate constant (kel) was calculated from the terminal points of FORMULA I plasma concentration-time plot and the slope of this line was equal to kel. Terminal elimination half-life (t½) was calculated by ln-linear approximation of terminal points of the data. t½ and kel were interconverted with the following formula: t1/2=ln 2/kel

[2] = system: Per2; assay: Per2 mRNA in mouse liver (qPCR); assay type: in vivo; settings: 25 and 50 mg/kg i.p., 6 h
Protocol: FIGS. 5A-5G are an illustration of FORMULA I decreased the nuclear CRY1 in mice liver. FORMULA I (25 mg/kg or 50 mg/kg) or vehicle intraperitoneally administered to C57BL/6J mice. 6 h after the treated mice were sacrificed (n=3). […] FIGS. 5A-5B show an effect of FORMULA I in WCL. FIG. 5C-5D show an effect of FORMULA I in cytosolic fraction. FIGS. 5E-5F show an effect of FORMULA I in nuclear fraction of muce liver. […] (Data represent the mean±SEM, n=3 (with duplicates in RT-PCR) *: p<0.05 versus control by student t-test).
QIAGEN RNeasy Mini Kit was used to isolate the mRNA. Protocol provided by the manufacturer was followed. On-column DNase treatment was performed with the DNase enzyme provided with the kit. […] Quantity of RNA was determined by Nanodrop 2000 (Thermo Scientific). […] For quantitative real time PCR (qRT-PCR) analysis cDNAs were further diluted 5-fold (1:5). mRNA expression levels were calculated by qRT-PCR with the SYBR Green. […] 10 seconds denaturation, 57 to 62° C. for 20 seconds annealing (the degree is determined by primer type) and 72° C. for 30 seconds of elongation, 35 cycles. […]
Since CRYs are stabilized and degraded differently in cytosolic and nuclear compartments, we further analyzed the level of CRY1 in the cytosolic and nuclear fraction of the mouse liver. […]

[3] = female, C57BL/6J, mouse, ip, 100 mg/kg, single dose, plasma

In the case of Cc1c(C(=O)N2CCc3ccccc32)oc2ccc3c(c12)C(=O)CC(C)(c1ccc(Cl)cc1)O3 (stereo not shown) [FORMULA I, 11-(4-chlorophenyl)-4-(2,3-dihydro-1H-indole-1-carbonyl)-3,11-dimethyl-5,10,dioxatricyclo[7.4.0.0,2,6,]trideca-1,3,6,8-tetraen-13-one], the “time plasma level first detected” value ([1]; 100 mg/kg, single dose, i.p.) is reported as 0.5 h, the “time plasma level still quantifiable” value ([1]; 100 mg/kg, single dose, i.p.) is reported as 24 h and the kel ([1]; 100 mg/kg, single dose, i.p., plasma) is reported as 0.127 ± 0.01 h⁻¹. It also gave an AUC(0-inf) [1, 3] of 5190 ± 3130 ng·h/mL, a Cmax [1, 3] of 1150 ± 506 ng/mL and a Tmax [1, 3] of 2 to 4 h. It also gave a half-life ([1]; female, C57BL/6J, mouse, plasma, intraperitoneal, 100 mg/kg, in vivo, mice, read-out: half-life in blood (converted)) of 6 h, a half-life ([1]; female, C57BL/6J, mouse, plasma, ip, 100 mg/kg, single dose, i.p., plasma, read-out: t1/2 (converted)) of 5.5 ± 0.33 h and a half-life in blood ([1]; in vivo, mice) of about 6 h. The “Per2 mRNA level in liver” value [2] was “significantly increased; also recorded: increased the mRNA level of Per2”.
